In patent publication US10961252B2, “Quinazoline and indole compounds to treat medical disorders” (Achillion Pharmaceuticals, Inc., priority 2016, dated 2021) one finds IC50 data, which are given here for 27 compounds.

The test system of this experiment is Normal Human Serum (NHS). Briefly: Hemolysis assay: lysis of rabbit erythrocytes (RE) by Normal Human Serum (NHS). Type of experiment: cell-based. Particulars: rabbit erythrocyte, 0.5 h, GVB0 plus 10 mM Mg-EGTA, 37° C. As for the experimental part:
The hemolysis assay was previously described by G. Ruiz-Gomez, et al., J. Med. Chem. (2009) 52: 6042-6052. Prior to the assay, the optimum concentration of Normal Human Serum (NHS) needed to achieve 100% lysis of rabbit erythrocytes (RE) is determined by titration. In the assay, NHS (Complement Technology) is diluted in GVB^0 Buffer (0.1% gelatin, 5 mM Veronal, 145 mM NaCl, 0.025% NaN3, pH 7.3, Complement Technology) plus 10 mM Mg-EGTA and incubated with test compound at various concentrations for 15 minutes at 37° C. RE (Complement Technology) freshly suspended in GVB^0 plus 10 mM Mg-EGTA are added to a final concentration of 1×10^8 cells/mL and reactions are incubated for 30 minutes at 37° C. Positive control reactions (100% lysis) consist of GVB^0 plus 10 mM Mg-EGTA with NHS and RE but without test compound; negative control reactions (0% lysis) consist of GVB^0 plus 10 mM Mg-EGTA with RE only. Samples are centrifuged at 2000 g for 3 minutes and supernatants collected. Absorbance at 405 nm (A405) is recorded using a microplate spectrophotometer. IC50 values are calculated by nonlinear regression from the percentage of hemolysis as a function of test compound concentration.

[1] abbreviates: Table 3, hemolysis of rabbit erythrocytes with NHS, read-out: IC50 (Stars).
The mark [2] stands for this setting: Table 2, hemolysis of rabbit erythrocytes with NHS, read-out: IC50 (Stars).
[3] abbreviates: Table 1, hemolysis of rabbit erythrocytes with NHS, read-out: IC50.

Counter-ions that a name gives are not always drawn. Like-named read-outs stand apart in the source and are kept apart here.

Usually IC50 stands for the midpoint of a concentration-inhibition curve. For `COc1cc(C)c2[nH]ncc2c1CN1CC[C@@H](C)C[C@H]1c1ccc(C(=O)O)cc1` [Compound 21, 4-((2S, 4R)-1-((5-Methoxy-7-methyl-1H-indazol-4-yl) Methyl)-4-methylpiperidin-2-yl) Benzoic Acid], the IC50 under setting [1] is > 10000 nM. On to `COc1cc2c(N)nc(C3=CCN(C(=O)C[C@@H]4C[C@@H]5CCCC[C@@H]5N4)CC3)nc2c(F)c1OC` [Compound 18, 1-(4-(4-Amino-8-fluoro-6,7-dimethoxyquinazolin-2-yl)-3,6-dihydropyridin-1(2H)-yl)-2-((2S,3aS,7aS)-octahydro-1H-indol-2-yl)ethan-1-one TFA salt], for which the 50% inhibitory concentration (IC50) under setting [2] is < 1000 nM. For `CCN[C@H](CC(=O)N1CC=C(c2nc(N)c3cc(OC)c(OC)c(F)c3n2)CC1)c1ccc(C#N)cc1` [Compound 17, (R)-4-(3-(4-(4-Amino-8-fluoro-6,7-dimethoxyquinazolin-2-yl)-3,6-dihydropyridin-1(2H)-yl)-1-(ethylamino)-3-oxopropyl)benzonitrile], under setting [2], the IC50 is < 1000 nM. Turning to `COc1cc2c(N)nc(N3CCN(C(=O)C[C@@H]4C[C@@H]5CCCC[C@@H]5N4)CC3)nc2c(F)c1OC` [Compound 3, 1-(4-(4-Amino-8-fluoro-6,7-dimethoxyquinazolin-2-yl)piperazin-1-yl)-2-((2S,3aS,7aS)-octahydro-1H-indol-2-yl)ethan-1-one Hydrochloride], the IC50 under setting [3] was < 1000 nM. In the case of `CCN[C@H](CC(=O)N1CC2CCC(C1)N2c1nc(N)c2cc(OC)c(OC)c(F)c2n1)c1ccc(C#N)cc1` [Compound 16, 4-((1R)-3-(8-(4-Amino-8-fluoro-6,7-dimethoxyquinazolin-2-yl)-3,8-diazabicyclo[3.2.1]octan-3-yl)-1-(ethylamino)-3-oxopropyl)benzonitrile], the IC50 under setting [2] was < 1000 nM. As to `COc1cc(C)c2[nH]ccc2c1CN1CCC(C)CC1c1ccc(S(C)(=N)=O)cc1` (stereo not drawn) [Compound 25, 5-Methoxy-7-methyl-4-((4-methyl-2-(4-(S-methylsulfonimidoyl)phenyl)piperidin-1-yl)methyl)-1H-indole], under setting [1], the IC50 was < 1000 nM. `COc1cc2c(N)nc(N3CCN(C(=O)CC4NCCS4)CC3)nc2c(F)c1OC` (stereo not drawn) [Compound 1, 1-(4-(4-Amino-8-fluoro-6,7-dimethoxyquinazolin-2-yl)piperazin-1-yl)-2-(thiazolidin-2-yl)ethan-1-one Hydrochloride]: the IC50 under setting [3] was > 10000 nM. In the case of `COc1cc(C)c2[nH]c(C)cc2c1CN1CC[C@@H](C)C[C@H]1c1ccc(C(=O)O)cc1` [Compound 24, 4-((2S, 4R)-1-((5-Methoxy-2,7-dimethyl-1H-indol-4-yl) Methyl)-4-methylpiperidin-2-yl) Benzoic Acid], the IC50 under setting [1] is > 10000 nM. Turning to `COc1cc2c(N)nc(N3CC4CCC(C3)N4C(=O)C=Cc3ccc(F)cc3)nc2c(F)c1OC` [Compound 14, 1-(3-(4-Amino-8-fluoro-6,7-dimethoxyquinazolin-2-yl)-3,8-diazabicyclo[3.2.1]octan-8-yl)-3-(4-fluorophenyl)prop-2-en-1-one], under setting [3], the IC50 is > 10000 nM. Consider `CCN[C@H](CC(=O)N1CCC(c2nc(N)c3cc(OC)c(OC)c(F)c3n2)C(C(=O)O)C1)c1ccc(F)cc1` (stereo partly drawn) [Compound 9, 4-(4-Amino-8-fluoro-6,7-dimethoxyquinazolin-2-yl)-1-((R)-3-(ethylamino)-3-(4-fluorophenyl)propanoyl)piperidine-3-carboxylic acid], for which the IC50 under setting [3] lay within 1000 to 10000 nM. In the case of `COc1cc(C)c2[nH]ccc2c1CN1CC[C@@H](C)C[C@H]1c1ccc([S@@](C)(=N)=O)cc1` [Compound 30, 5-Methoxy-7-methyl-4-(((2S,4R)-4-methyl-2-(4-((S)—S-methylsulfonimidoyl)phenyl)piperidin-1-yl)methyl)-1H-indole], the IC50 under setting [1] was < 1000 nM. Turning to `CCN[C@H](CC(=O)N1CC=C(c2nc(N)c3cc(OC)c(OC)c(F)c3n2)CC1)c1ccc(F)cc1` [Compound 4, (R)-1-(4-(4-Amino-8-fluoro-6,7-dimethoxyquinazolin-2-yl)-3,6-dihydropyridin-1(2H)-yl)-3-(ethylamino)-3-(4-fluorophenyl)propan-1-one], the IC50 under setting [3] is < 1000 nM.

Consider `CCN[C@H](CC(=O)N1CCC(c2nc(N)c3cc(OC)c(OC)c(F)c3n2)=C(C(=O)O)C1)c1ccc(F)cc1` [Compound 8, (R)-4-(4-Amino-8-fluoro-6,7-dimethoxyquinazolin-2-yl)-1-(3-(ethylamino)-3-(4-fluorophenyl)propanoyl)-1,2,5,6-tetrahydropyridine-3-carboxylic Acid], for which the IC50 under setting [3] was > 10000 nM.

As for `COc1cc(C)c2[nH]ccc2c1CN1CC[C@H](C)C[C@@H]1c1ccc(S(C)(=N)=O)cc1` (stereo partly drawn) [Compound 23, 5-Methoxy-7-methyl-4-(((2R,4S)-4-methyl-2-(4-(S-methylsulfonimidoyl)phenyl)piperidin-1-yl)methyl)-1H-indole], the IC50 under setting [1] was > 10000 nM.

Turning to `COc1cc(C)c2[nH]ccc2c1CN1CCC(C)CC1c1ccc(P(=O)(O)O)cc1` (stereo not drawn) [Compound 26, 4-(1-((5-Methoxy-7-methyl-1H-indol-4-yl)methyl)-4-methylpiperidin-2-yl)phenylphosphonic Acid], the IC50 under setting [1] was < 1000 nM. For the compound `CCN[C@H](CC(=O)N1CC2CCC(C1)N2c1nc(N)c2cc(OC)c(OC)c(F)c2n1)c1ccc(F)cc1` [Compound 13, (3R)-1-(8-(4-Amino-8-fluoro-6,7-dimethoxyquinazolin-2-yl)-3,8-diazabicyclo[3.2.1]octan-3-yl)-3-(ethylamino)-3-(4-fluorophenyl)propan-1-one], the IC50 under setting [3] was < 1000 nM.

Take `COc1cc(C)c2[nH]ccc2c1CN1CC[C@@H](C)C[C@H]1c1ccc([S@](C)(=N)=O)cc1` [Compound 31, 5-Methoxy-7-methyl-4-(((2S,4R)-4-methyl-2-(4-((R)—S-methylsulfonimidoyl)phenyl)piperidin-1-yl)methyl)-H-indole]: the IC50 under setting [1] was < 1000 nM. In the case of `COc1cc(C)c2[nH]ccc2c1CN1CCCC[C@H]1C1CCC(C(=O)O)CC1` (stereo partly drawn) [Compound 20, (1R,4S)-4-((S)-1-((5-Methoxy-7-methyl-1H-indol-4-yl)methyl)piperidin-2-yl) Cyclohexanecarboxylic Acid], under setting [1], the IC50 was > 10000 nM.

`CCN[C@H](CC(=O)N1CC2CCC1CN2c1nc(N)c2cc(OC)c(OC)c(F)c2n1)c1ccc(F)cc1` (stereo partly drawn) [Compound 15, (3R)-1-(5-(4-Amino-8-fluoro-6,7-dimethoxyquinazolin-2-yl)-2,5-diazabicyclo[2.2.2]octan-2-yl)-3-(ethylamino)-3-(4-fluorophenyl)propan-1-one]: under setting [3], the IC50 was > 10000 nM. For `CCN[C@H](CC(=O)N1CCC(c2nc(N)c3cc(OC)c(OC)c(F)c3n2)CC1)c1ccc(F)cc1` [Compound 5, (R)-1-(4-(4-Amino-8-fluoro-6,7-dimethoxyquinazolin-2-yl)piperidin-1-yl)-3-(ethylamino)-3-(4-fluorophenyl)propan-1-one], the IC50 under setting [3] lay within 1000 to 10000 nM.

On to `COc1cc(C)c2[nH]ccc2c1CN1CCC(C)CC1c1ccc(C(=O)O)c2c1CCCC2` (stereo not drawn) [Compound 28, 4-(1-((5-Methoxy-7-methyl-1H-indol-4-yl)methyl)-4-methylpiperidin-2-yl)-5,6,7,8-tetrahydronaphthalene-1-carboxylic Acid], for which, under setting [1], the IC50 is < 1000 nM. Take `COc1cc(C)c2[nH]ccc2c1CN1CC[C@@H](C)C[C@H]1c1ccc(P(=O)(O)O)cc1` [Compound 32, (4-((2S,4R)-1-((5-Methoxy-7-methyl-1H-indol-4-yl)methyl)-4-methylpiperidin-2-yl)phenyl)phosphonic Acid]: the IC50 under setting [1] was < 1000 nM.

In the case of `COc1cc(C)c2[nH]ccc2c1CN1CC[C@@H](C)C[C@H]1c1ccc(C(=O)O)c2c1CCCC2` [Compound 34, 4-((2S,4R)-1-((5-Methoxy-7-methyl-1H-indol-4-yl)methyl)-4-methylpiperidin-2-yl)-5,6,7,8-tetrahydronaphthalene-1-carboxylic Acid], the half-maximal inhibitory concentration (IC50) under setting [1] was < 1000 nM. As for `CCN[C@H](CC(=O)N1C(C)C=C(c2nc(N)c3cc(OC)c(OC)c(F)c3n2)CC1C)c1ccc(F)cc1` (stereo partly drawn) [Compound 10, (3R)-1-(4-(4-Amino-8-fluoro-6,7-dimethoxyquinazolin-2-yl)-2,6-dimethyl-3,6-dihydropyridin-1(2H)-yl)-3-(ethylamino)-3-(4-fluorophenyl)propan-1-one], the IC50 under setting [3] is < 1000 nM. Turning to `COc1cc(C)c2[nH]ccc2c1CN1CC[C@@H](C)C[C@@H]1c1ccc(C(=O)O)c2c1CCCC2` [Compound 35, 4-((2R,4R)-1-((5-Methoxy-7-methyl-1H-indol-4-yl)methyl)-4-methylpiperidin-2-yl)-5,6,7,8-tetrahydronaphthalene-1-carboxylic Acid], the IC50 under setting [1] was > 10000 nM.

`COc1cc(C)c2[nH]ccc2c1CN1CCC(C)CC1c1ccc(C(=O)NO)cc1` (stereo not drawn) [Compound 27, N-Hydroxy-4-(1-((5-methoxy-7-methyl-1H-indol-4-yl)methyl)-4-methylpiperidin-2-yl)benzamide]: the IC50 under setting [1] is < 1000 nM. With `COc1cc(C)c2[nH]ccc2c1CN1CC[C@H](C)C[C@@H]1c1ccc(P(=O)(O)O)cc1` [Compound 33, 4-((2R, 4S)-1-((5-Methoxy-7-methyl-1H-indol-4-yl)methyl)-4-methylpiperidin-2-yl) Phenylphosphonic Acid], the IC50 under setting [1] lay within 1000 to 10000 nM.
